This is an account of results in PubChem BioAssay (NCI).

Each structure is given as a SMILES string.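 Method: 48-hour compound exposure of cells in 96-well plates, five concentrations, linear interpolation of endpoints. Definition used: TGI = concentration required for complete inhibition of growth.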

Among the test systems are IGROV1 ovarian; DU-145 prostate; RXF 393 renal; M14 melanoma; SW-620 colon; COLO 205 colon; MCF7 breast; SR leukemia; A549 NSCLC; HT29 colon; HS 578T breast; SF-268 CNS; SN12C renal; SK-MEL-5 melanoma; LOX IMVI melanoma.
Test in all cases: NCI tumour cell line growth inhibition, 48 h

Regarding `CCOC(=O)c1cc(C2=CCNC2=O)c(-c2cc(C)no2)[nH]1`, the TGI in the assay with IGROV1 ovarian, in the assay with DU-145 prostate, with RXF 393 renal, in the assay on M14 melanoma, in the assay on SW-620 colon and with COLO 205 colon was over 100 µM in each case. In addition, the TGI in the assay on MCF7 breast, in the assay on SR leukemia, in the assay on A549 NSCLC, with HT29 colon, in the assay with HS 578T breast and in the assay with SF-268 CNS was over 100 µM throughout. The TGI with SN12C renal, in the assay with SK-MEL-5 melanoma and in the assay with LOX IMVI melanoma was over 100 µM each time.
As for `COC(=O)CNC(=O)CNC(=O)CSc1nnc(COc2ccc(Cl)cc2)n1-c1ccccc1`, the TGI with IGROV1 ovarian is 39.4 µM; in the assay with DU-145 prostate, over 100 µM; in the assay with RXF 393 renal, 36.8 µM; with M14 melanoma it was over 100 µM; with SW-620 colon, over 100 µM; in the assay with COLO 205 colon, over 100 µM. Also, the TGI in the assay on MCF7 breast is over 100 µM; with SR leukemia, 86.6 µM; in the assay on A549 NSCLC, over 100 µM; in the assay on HT29 colon, over 100 µM; in the assay with HS 578T breast, 78.3 µM; with SF-268 CNS, 51.6 µM. For the same compound, the TGI in the assay with SN12C renal was over 100 µM; in the assay with SK-MEL-5 melanoma, 41 µM; in the assay on LOX IMVI melanoma, 57.7 µM.
For the compound `O=C(CC(Cc1ccccc1)c1ccc(Oc2ccccc2)cc1)Nc1cccc(Cl)c1` (stereo not given), the TGI is 16.3 µM in the assay with IGROV1 ovarian; over 100 µM in the assay on DU-145 prostate; 62.8 µM in the assay with RXF 393 renal; over 100 µM with M14 melanoma; over 100 µM in the assay with SW-620 colon; 19.3 µM in the assay with COLO 205 colon. Besides, the TGI in the assay on MCF7 breast was 18.3 µM; in the assay with SR leukemia it was 47.5 µM; in the assay on A549 NSCLC, over 100 µM; with HT29 colon it was over 100 µM; in the assay on HS 578T breast it was over 100 µM; with SF-268 CNS it was over 100 µM. The TGI in the assay with SN12C renal is over 100 µM; with SK-MEL-5 melanoma, 26.8 µM; in the assay with LOX IMVI melanoma it was 49.2 µM.
Take `CN1CN(c2ccccc2)C2(CCN(C3Nc4ccccc4O3)CC2)C1=O` (stereo not given): the TGI in the assay on IGROV1 ovarian was 58.5 µM; in the assay on DU-145 prostate it was 60.1 µM; with RXF 393 renal, 35.5 µM; in the assay on M14 melanoma, 46.2 µM; in the assay with SW-620 colon, over 100 µM; in the assay with COLO 205 colon, 30.1 µM. For the same compound, the TGI in the assay with MCF7 breast is 38.6 µM; in the assay with SR leukemia, over 100 µM; with A549 NSCLC it was over 100 µM; in the assay on HT29 colon, 33 µM; with HS 578T breast, 37.7 µM; with SF-268 CNS, 61 µM. Further, the TGI in the assay on SN12C renal is 34.7 µM; in the assay with SK-MEL-5 melanoma, 32 µM; in the assay on LOX IMVI melanoma it was 26.8 µM.
Consider `CC(C)C1CC(CO)(CNc2nc(N)nc(Cl)c2/C=N\O)C1` (stereo not given), for which the TGI in the assay on IGROV1 ovarian was 50.1 µM; in the assay with DU-145 prostate it was over 100 µM; in the assay on RXF 393 renal it was 55.1 µM; in the assay on M14 melanoma, 26.1 µM; with SW-620 colon it was 61.2 µM; in the assay on COLO 205 colon it was 11.8 µM. Also, the TGI in the assay with MCF7 breast is 4.27 µM; with SR leukemia, over 54.2 µM; in the assay on A549 NSCLC, 18.8 µM; with HT29 colon it was 15.5 µM; in the assay on HS 578T breast it was 53.8 µM; with SF-268 CNS, over 79.5 µM. Also, the TGI was over 89.5 µM in the assay on SN12C renal, 2.82 µM in the assay with SK-MEL-5 melanoma and 22.5 µM with LOX IMVI melanoma.
In the case of `CC(NC(=O)C(N)CC(=O)O)C(=O)OC12CC3CC(CC(C3)C1)C2` (stereo not given), the TGI with IGROV1 ovarian, in the assay on DU-145 prostate, in the assay on RXF 393 renal, in the assay on M14 melanoma, with SW-620 colon and with COLO 205 colon was over 100 µM in each case. Further, the TGI in the assay on MCF7 breast, with SR leukemia, in the assay on A549 NSCLC, in the assay with HT29 colon, with HS 578T breast and in the assay on SF-268 CNS was over 100 µM in each case. The TGI in the assay with SN12C renal, with SK-MEL-5 melanoma and in the assay on LOX IMVI melanoma was over 100 µM throughout.
In the case of `N#Cc1sc2c(c1OC(=O)c1ccc(Cl)cc1)c(=O)n(-c1ccccc1)c(=S)n2-c1ccccc1`, the TGI with IGROV1 ovarian is 40.5 µM; with DU-145 prostate, over 100 µM; in the assay on RXF 393 renal, 50.7 µM; in the assay with M14 melanoma, 50.8 µM; in the assay on SW-620 colon it was 46.9 µM; in the assay on COLO 205 colon it was 38.1 µM. Moreover, the TGI is 84.2 µM in the assay on MCF7 breast; 75.9 µM in the assay on SR leukemia; over 100 µM in the assay on A549 NSCLC; 76.3 µM with HT29 colon; 56.2 µM with HS 578T breast; 97.7 µM in the assay with SF-268 CNS. Besides, the TGI was determined as 54 µM in the assay with SN12C renal, 38.8 µM in the assay on SK-MEL-5 melanoma and 37.3 µM in the assay on LOX IMVI melanoma.
On to `Fc1cc(C2=Nn3c(CNc4ccc(Cl)cc4)nnc3S/C2=C\c2ccc(-c3ccc(Cl)cc3)o2)c(Cl)cc1Cl`, for which the TGI in the assay with IGROV1 ovarian is over 100 µM; in the assay with DU-145 prostate it was over 100 µM; in the assay on RXF 393 renal, 61.4 µM; in the assay with M14 melanoma it was over 100 µM; in the assay with SW-620 colon, over 100 µM; with COLO 205 colon, 88.6 µM. For the same compound, the TGI in the assay on MCF7 breast, in the assay with SR leukemia, in the assay with A549 NSCLC, in the assay with HT29 colon, in the assay on HS 578T breast and in the assay with SF-268 CNS was over 100 µM in each case. The TGI in the assay with SN12C renal, with SK-MEL-5 melanoma and with LOX IMVI melanoma was over 100 µM in each case.
For `COc1ccc(-c2[nH]c(-c3ccc(OC)cc3)c(-c3ccccn3)c2-c2ccccn2)cc1`, the TGI in the assay on IGROV1 ovarian is over 100 µM; in the assay with DU-145 prostate it was over 100 µM; with RXF 393 renal, over 100 µM; in the assay on M14 melanoma, over 100 µM; in the assay on SW-620 colon, over 100 µM; with COLO 205 colon, 61.1 µM. Besides, the TGI was over 100 µM in the assay with MCF7 breast; over 100 µM with SR leukemia; over 100 µM with A549 NSCLC; 49.3 µM in the assay with HT29 colon; over 100 µM in the assay with HS 578T breast; over 100 µM with SF-268 CNS. Moreover, the results for the TGI in the assay on SN12C renal, in the assay with SK-MEL-5 melanoma and in the assay with LOX IMVI melanoma were over 100 µM, 32.2 µM and 65.5 µM, respectively.
